Measured values reported in US20230157296A1, “METHODS OF REDUCING FUSARIUM CONTAMINATION” (Taminco BV, priority 2020, published 2023).

What was measured:
Foc TR4 chlamydospores = assay: Efficacy of metam sodium on chlamydospores of Foc TR4 in vitro (colonies on PDA plates); format: cell-based, Fusarium oxysporum f. sp. Cubense Tropical Race 4
Method: Foc TR4 chlamydospores were extracted from infested soil and incubated with a dilution series of metam sodium for 5 min and 60 min at room temperature. Thereafter, the samples were diluted 10X to get reduction of the treatment and sufficient dilution of chlamydospores to avoid lack of resolution when grown on plate. Aliquots of 100 µl were plated on PDA plates in duplicate and incubated for 3 days at 25° C. Plates were photographed and scored.

Cavendish banana plants = assay: Musa field soil injection of metam sodium at 30 cm and 60 cm: banana plant growth and stage; format: in vivo
Method: (§1) Metam Sodium Application. Metam sodium 510 SL (equivalent to 42% w/w) was applied to soil at the following doses: 0 liters per hectare (L/ha), 750 L/ha, 1500 L/ha, 2250 L/ha, 3000 L/ha.
(§2) Prior to injection, soil was prepared using a rototiller to break the soil structure from 0 cm to 80 cm deep, allowing for the smooth and even injection application by an injection machine. The soil was then leveled and made uniform, and the metam sodium was applied at two depths: 30 cm and 60 cm, using injection methods. The temperature was at a minimum of 10° C. and soil humidity was between 50 and 60% holding capacity, allowing the applied product to transform from metam sodium (liquid) to MITC (gas).
(§3) The application was made using an injection machine wherein the machine lowered shanks and began moving forward such that the shanks lowered to a depth of 60 cm and injectors applied the metam sodium into the soil. When the injection at 60 cm was complete, the process was repeated for the entire field at 30 cm. The treated soil in the field was then sealed using a packer roller (which was part of the injection machinery, located at the back end of the machine), after each application.
Plant Selection and Transplantation. Cavendish banana plants were used for this investigation. In order to avoid plants already contaminated by other soil, all plants were produced in vitro using art-recognized methods. Plants were transplanted into the field 14 days after the final soil reading was taken (21 days after treatment).
Data Gathering. Data were gathered at monthly intervals beginning three months after banana plants were transplanted. A total of three data collection sessions were conducted. Data including the number of leaves, plant height, and girth size were collected.

[1] = system: F. oxysporum f. sp. cubense (Foc TR4); assay: Panama disease analysis of soil samples after metam sodium field injection; format: in vivo, Fusarium oxysporum f. sp. Cubense Tropical Race 4
Method: as §1, §2, §3
Soil Analysis. Soil samples were obtained at 20, 40, and 60 cm before application and every 24 hours beginning 48 hours after application, for seven days.
Plant Pathology Analysis. Soil samples used for Panama Disease and nematode analyses were aseptically isolated in culture medium and incubated for seven days at room temperature. Organisms were identified as follows: 20 grams of composite soil sample was diluted with 40 mL distilled water (dH2O); 1 drop of Tween 20 detergent was added, and the sample mixed. A 1 mL aliquot was taken from the solution and diluted with 9 mL dH2O; three further serial dilutions were made. From each dilution, 100 µL were spread on solid Komada growth medium (Sun et al., Phytopathology 68: 1672-1673, 1978). Growth could be seen 7 days after inoculation.

[2] = 750 L/ha, six months after treatment
[3] = 1500 L/ha, six months after treatment
[4] = 2250 L/ha, six months after treatment
[5] = 3000 L/ha, six months after treatment

## CNC(=S)[S-].[Na+] [metam sodium, sodium N-methyldithiocarbamate]
Foc TR4 chlamydospores; 100X dilution, prolonged incubation (60 min vs 5 min)
  reducing the number of surviving chlamydospores, measured as growing colonies: more effective
Foc TR4 chlamydospores; First test, dilutions from 1000 up to 10 X 10^6-fold, 60 min
  reduction in viability of Foc TR4 chlamydospores: No significant reduction in viability
Foc TR4 chlamydospores; Second test, 10X and 100X dilutions
  efficacy on chlamydospores (colonies on PDA plates): (partially) effective
Foc TR4 chlamydospores; Second test, dilutions of 1000X and more
  number of chlamydospores that survived: did not affect
Foc TR4 chlamydospores; dilution of 10X, incubation time 5 minutes
  efficacy on chlamydospores (colonies on PDA plates): effective
Foc TR4 chlamydospores; dilution of 100X, both 5 and 60 minutes
  efficacy on chlamydospores (colonies on PDA plates): less effective
Foc TR4 chlamydospores; in vitro conditions, dependent on high concentrations
  effectiveness against Foc TR4 chlamydospores: effective
Cavendish banana plants; 750 L/ha
  effect on average girth size of banana plant: ~ 1 cm
  increase in average height of banana plant: ~ 5 cm
Cavendish banana plants; [2]
  effect on plants reaching bagging stage: did not have a meaningful effect
  percent of plants at either shooting or bagging stage: 11%
  percent of plants at shooting stage: 9%
Cavendish banana plants; 1500-3000 L/ha
  increase in average girth size of banana plant: 4-6 cm
  increase in average height of banana plant: 20-23 cm
Cavendish banana plants; [3]
  percent of plants at either shooting or bagging stage: 28%
  percent of plants at shooting stage: 10%
Cavendish banana plants; 1500 to 3000 L/ha, six months after treatment
  percent of plants at bagging stage: 11-19%
Cavendish banana plants; [4]
  percent of plants at either shooting or bagging stage: 27%
  percent of plants at shooting stage: 17%
Cavendish banana plants; [5]
  percent of plants at either shooting or bagging stage: 35%
  percent of plants at shooting stage: 22%
Cavendish banana plants; regardless of dose applied
  leaf increase (average number of leaves per banana plant): roughly 1.5 fold
[1]; Day 1, 20 cm, T2 750 L/ha
  Panama Disease F. oxysporum f. sp. cubense: -
[1]; Day 1, 20 cm, T3 1500 L/ha
  Panama Disease F. oxysporum f. sp. cubense: -
[1]; Day 1, 20 cm, T4 2250 L/ha
  Panama Disease F. oxysporum f. sp. cubense: -
[1]; Day 1, 20 cm, T5 3000 L/ha
  Panama Disease F. oxysporum f. sp. cubense: -
[1]; Day 1, 40 cm, T2 750 L/ha
  Panama Disease F. oxysporum f. sp. cubense: -
[1]; Day 1, 40 cm, T3 1500 L/ha
  Panama Disease F. oxysporum f. sp. cubense: -
[1]; Day 1, 40 cm, T4 2250 L/ha
  Panama Disease F. oxysporum f. sp. cubense: -
[1]; Day 1, 40 cm, T5 3000 L/ha
  Panama Disease F. oxysporum f. sp. cubense: -
[1]; Day 1, 60 cm, T2 750 L/ha
  Panama Disease F. oxysporum f. sp. cubense: -
[1]; Day 1, 60 cm, T3 1500 L/ha
  Panama Disease F. oxysporum f. sp. cubense: -
[1]; Day 1, 60 cm, T4 2250 L/ha
  Panama Disease F. oxysporum f. sp. cubense: -
[1]; Day 1, 60 cm, T5 3000 L/ha
  Panama Disease F. oxysporum f. sp. cubense: -
[1]; Day 2, 20 cm, T2 750 L/ha
  Panama Disease F. oxysporum f. sp. cubense: -
[1]; Day 2, 20 cm, T3 1500 L/ha
  Panama Disease F. oxysporum f. sp. cubense: -
[1]; Day 2, 20 cm, T4 2250 L/ha
  Panama Disease F. oxysporum f. sp. cubense: -
[1]; Day 2, 20 cm, T5 3000 L/ha
  Panama Disease F. oxysporum f. sp. cubense: -
[1]; Day 2, 40 cm, T2 750 L/ha
  Panama Disease F. oxysporum f. sp. cubense: -
[1]; Day 2, 40 cm, T3 1500 L/ha
  Panama Disease F. oxysporum f. sp. cubense: -
[1]; Day 2, 40 cm, T4 2250 L/ha
  Panama Disease F. oxysporum f. sp. cubense: -
[1]; Day 2, 40 cm, T5 3000 L/ha
  Panama Disease F. oxysporum f. sp. cubense: -
[1]; Day 2, 60 cm, T2 750 L/ha
  Panama Disease F. oxysporum f. sp. cubense: -
[1]; Day 2, 60 cm, T3 1500 L/ha
  Panama Disease F. oxysporum f. sp. cubense: -
[1]; Day 2, 60 cm, T4 2250 L/ha
  Panama Disease F. oxysporum f. sp. cubense: -
[1]; Day 2, 60 cm, T5 3000 L/ha
  Panama Disease F. oxysporum f. sp. cubense: -
[1]; Day 3, 20 cm, T2 750 L/ha
  Panama Disease F. oxysporum f. sp. cubense: -
[1]; Day 3, 20 cm, T3 1500 L/ha
  Panama Disease F. oxysporum f. sp. cubense: -
[1]; Day 3, 20 cm, T4 2250 L/ha
  Panama Disease F. oxysporum f. sp. cubense: -
[1]; Day 3, 20 cm, T5 3000 L/ha
  Panama Disease F. oxysporum f. sp. cubense: -
[1]; Day 3, 40 cm, T2 750 L/ha
  Panama Disease F. oxysporum f. sp. cubense: -
[1]; Day 3, 40 cm, T3 1500 L/ha
  Panama Disease F. oxysporum f. sp. cubense: -
[1]; Day 3, 40 cm, T4 2250 L/ha
  Panama Disease F. oxysporum f. sp. cubense: -
